This note sets out measurements from PubChem BioAssay AID2060342 (Molecular Pharmacology Branch, DTP, NCI, 2025).

This assay relates to 171881-019-R-J1-PDC multicell spheroid viability. As to the kind of experiment: Anticancer human tumor 171881-019-R-J1-PDC patient-derived invasive breast carcinoma cell line growth inhibition [IpAb]. As to conditions: for viability, T/C: stronger effect = lower value. Summed up: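 Combinations with ipatasertib or abemaciclib were tested on tumour spheroids holding HUVEC (25%) and MSC (15%) alongside 60% malignant cells. Top concentration was at or near clinical Cmax (10 microM if undefined), descending in half-log steps.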

The mark [1] stands for this setting: curve of first compound, second compound 0.1 µM.
Where [2] appears, read: curve of first compound, second compound 0.316 µM.
The mark [3] stands for this setting: curve of first compound, second compound 1 µM.
The mark [4] stands for this setting: curve of first compound, second compound 3.16 µM.
Setting [5] is: curve of first compound, second compound 10 µM.
Setting [6] is: second compound 0.1 µM, first compound 0.0316 µM.
The mark [7] stands for this setting: second compound 0.1 µM, first compound 0.1 µM.
The mark [8] stands for this setting: second compound 0.316 µM, first compound 0.0316 µM.
Where [9] appears, read: second compound 0.316 µM, first compound 0.1 µM.
Where [10] appears, read: second compound 1 µM, first compound 0.0316 µM.
[11] abbreviates: second compound 1 µM, first compound 0.1 µM.
Where [12] appears, read: second compound 3.16 µM, first compound 0.0316 µM.
Where [13] appears, read: second compound 3.16 µM, first compound 0.1 µM.
[14] abbreviates: second compound 10 µM, first compound 0.0316 µM.
Where [15] appears, read: second compound 10 µM, first compound 0.1 µM.
[16] abbreviates: second compound 0.1 µM, first compound 0.000316 µM.
Where [17] appears, read: second compound 0.1 µM, first compound 0.001 µM.
Where [18] appears, read: second compound 0.1 µM, first compound 0.00316 µM.
[19] abbreviates: second compound 0.1 µM, first compound 0.01 µM.
Where [20] appears, read: second compound 0.316 µM, first compound 0.000316 µM.
[21] abbreviates: second compound 0.316 µM, first compound 0.001 µM.
The mark [22] stands for this setting: second compound 0.316 µM, first compound 0.00316 µM.
[23] abbreviates: second compound 0.316 µM, first compound 0.01 µM.
Setting [24] is: second compound 1 µM, first compound 0.000316 µM.
Setting [25] is: second compound 1 µM, first compound 0.001 µM.
The mark [26] stands for this setting: second compound 1 µM, first compound 0.00316 µM.
[27] abbreviates: second compound 1 µM, first compound 0.01 µM.

Where “and” joins values, the source holds several entries; their conditions need not be identical. Identical values can stand only once. A value given as a limit tells only on which side of the number the result lay.
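Also: spheroids exposed to the agents for seven days before readout.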

The term IC50 denotes the concentration that inhibits the measured activity by half. For orientation: viability, T/C means the ratio of treated to control. Take `C=CCn1c(=O)c2cnc(Nc3ccc(N4CCN(C)CC4)cc3)nc2n1-c1cccc(C(C)(C)O)n1` + CC(C)NCC(C(=O)N1CCN(c2ncnc3c2C(C)CC3O)CC1)c1ccc(Cl)cc1: the IC50 is 727 nM under setting [1]; 354 nM under setting [2]; < 31.6 nM under setting [3]; < 31.6 nM under setting [4]; < 31.6 nM under setting [5]. In addition, the viability, T/C runs as follows: under setting [6], 116%; under setting [7], 118%; (second compound 0.1 µM, first compound 0.316 µM) 114%; (second compound 0.1 µM, first compound 1 µM) 25.6%; (second compound 0.1 µM, first compound 3.16 µM) 22.1%; (second compound 0.1 µM, first compound 10 µM) 20.3%. Also, the viability, T/C under setting [8] is 87.3%; the viability, T/C under setting [9] was 80.3%; the viability, T/C (second compound 0.316 µM, first compound 0.316 µM) was 54%; the viability, T/C (second compound 0.316 µM, first compound 1 µM) is 17.4%; the viability, T/C (second compound 0.316 µM, first compound 3.16 µM) was 15.6%; the viability, T/C (second compound 0.316 µM, first compound 10 µM) was 16.4%. For the same compound, the viability, T/C was 26.4% under setting [10]; 23.8% under setting [11]; 16.5% (second compound 1 µM, first compound 0.316 µM); 9.22% (second compound 1 µM, first compound 1 µM); 10.4% (second compound 1 µM, first compound 3.16 µM); 10.4% (second compound 1 µM, first compound 10 µM). The viability, T/C is, setting by setting: under setting [12], 9.36%; under setting [13], 8.13%; (second compound 3.16 µM, first compound 0.316 µM) 6.23%; (second compound 3.16 µM, first compound 1 µM) 5.35%; (second compound 3.16 µM, first compound 3.16 µM) 7.31%; (second compound 3.16 µM, first compound 10 µM) 8.03%. Also, the viability, T/C is 5.29% under setting [14]; 4.04% under setting [15]; 3.45% (second compound 10 µM, first compound 0.316 µM); 4.09% (second compound 10 µM, first compound 1 µM); 4.97% (second compound 10 µM, first compound 3.16 µM); 4.41% (second compound 10 µM, first compound 10 µM).
For the compound `CC(C)n1nc(-c2ccc3oc(N)nc3c2)c2c(N)ncnc21` + CC(C)NCC(C(=O)N1CCN(c2ncnc3c2C(C)CC3O)CC1)c1ccc(Cl)cc1, the half-inhibitory concentration (IC50) was 3.65 nM under setting [1]; 0.877 nM under setting [2]; < 0.316 nM under setting [3]; < 0.316 nM under setting [4]; < 0.316 nM under setting [5]. Also, the viability, T/C runs as follows: under setting [16], 116%; under setting [17], 101%; under setting [18], 56.6%; under setting [19], 11.2%; under setting [6], 2.88%; under setting [7], 2%. Moreover, the viability, T/C is, setting by setting: under setting [20], 69.3%; under setting [21], 47.4%; under setting [22], 16.7%; under setting [23], 3.76%; under setting [8], 1.96%; under setting [9], 1.7%. Besides, the viability, T/C is, setting by setting: under setting [24], 20%; under setting [25], 9.02%; under setting [26], 5.13%; under setting [27], 2.23%; under setting [10], 1.26%; under setting [11], 1.29%. In addition, the viability, T/C is, setting by setting: (second compound 3.16 µM, first compound 0.000316 µM) 8.5%; (second compound 3.16 µM, first compound 0.001 µM) 4.98%; (second compound 3.16 µM, first compound 0.00316 µM) 2.85%; (second compound 3.16 µM, first compound 0.01 µM) 1.62%; under setting [12], 1.09%; under setting [13], 0.93%. Besides, the viability, T/C runs as follows: (second compound 10 µM, first compound 0.000316 µM) 5.26%; (second compound 10 µM, first compound 0.001 µM) 3.35%; (second compound 10 µM, first compound 0.00316 µM) 2.04%; (second compound 10 µM, first compound 0.01 µM) 1.47%; under setting [14], 0.84%; under setting [15], 1%.
In the case of `Cc1nc(NC(=O)N2CCCC2C(N)=O)sc1-c1ccnc(C(C)(C)C(F)(F)F)c1` (stereo unspecified), the viability, T/C runs as follows: (compound 0.0316 µM) 117% and 108%; (compound 0.1 µM) 128% and 98.1%; (compound 0.316 µM) 84.2% and 67.8%; (compound 1 µM) 36.8% and 38.8%; (compound 3.16 µM) 16.5% and 12.6%; (compound 10 µM) 2.78% and 1.93%. Besides, for the setting “curve of compound”, the IC50 is 734 nM and 640 nM.
For `COc1c(OCCCN2CCOCC2)ccc2c3n(c(=NC(=O)c4cnc(N)nc4)nc12)CCN3`, the viability, T/C is 109% and 115% (compound 0.00316 µM); 65.8% and 77.7% (compound 0.01 µM); 17.4% and 33.4% (compound 0.0316 µM); 4.32% and 7.03% (compound 0.1 µM); 1% and 1.49% (compound 0.316 µM); 1.51% and 1.79% (compound 1 µM). Under “curve of compound”, the IC50 was 14.6 nM and 20.2 nM.
As for `Cn1ncnc1[C@H]1c2n[nH]c(=O)c3cc(F)cc(c23)N[C@@H]1c1ccc(F)cc1`, the viability, T/C is, setting by setting: (compound 0.000316 µM) 100% and 93.4%; (compound 0.001 µM) 111% and 93.9%; (compound 0.00316 µM) 116%; (compound 0.01 µM) 108% and 101%; (compound 0.0316 µM) 109% and 111%; (compound 0.1 µM) 128% and 123%. Further, the IC50 (curve of compound) is > 100 nM.
With `Cn1ncnc1[C@H]1c2n[nH]c(=O)c3cc(F)cc(c23)N[C@@H]1c1ccc(F)cc1` + CCN1CCN(Cc2ccc(Nc3ncc(F)c(-c4cc(F)c5nc(C)n(C(C)C)c5c4)n3)nc2)CC1, the IC50 reads like this: (curve of first compound, second compound 0.01 µM) > 100 nM; (curve of first compound, second compound 0.0316 µM) > 100 nM; under setting [1], > 100 nM; under setting [2], > 100 nM; under setting [3], > 100 nM. In addition, the viability, T/C is, setting by setting: (second compound 0.01 µM, first compound 0.000316 µM) 88.2%; (second compound 0.01 µM, first compound 0.001 µM) 99.7%; (second compound 0.01 µM, first compound 0.00316 µM) 86.9%; (second compound 0.01 µM, first compound 0.01 µM) 102%; (second compound 0.01 µM, first compound 0.0316 µM) 95.5%; (second compound 0.01 µM, first compound 0.1 µM) 109%. The viability, T/C is 109% (second compound 0.0316 µM, first compound 0.000316 µM); 96.2% (second compound 0.0316 µM, first compound 0.001 µM); 113% (second compound 0.0316 µM, first compound 0.00316 µM); 114% (second compound 0.0316 µM, first compound 0.01 µM); 104% (second compound 0.0316 µM, first compound 0.0316 µM); 113% (second compound 0.0316 µM, first compound 0.1 µM). Further, the viability, T/C under setting [16] is 118%; the viability, T/C under setting [17] is 118%; the viability, T/C under setting [18] is 115%; the viability, T/C under setting [19] was 114%; the viability, T/C under setting [6] is 116%; the viability, T/C under setting [7] is 113%. In addition, the viability, T/C reads like this: under setting [20], 126%; under setting [21], 132%; under setting [22], 124%; under setting [23], 127%; under setting [8], 130%; under setting [9], 126%. Also, the viability, T/C reads like this: under setting [24], 143%; under setting [25], 141%; under setting [26], 140%; under setting [27], 135%; under setting [10], 137%; under setting [11], 138%.
